Laboratory results as given in patent US12582727B2, “Chemiluminescent and fluorescent nanoparticle for optical imaging of cancer” (priority 2018, dated 2026).

Columns and labels:
[1] = test system: NOK (Normal oral keratinocyte); test: Cellular uptake, NOK cells (FRα-negative); assay type: cell-based; conditions: 1 and 3 hours of incubation, comparison among samples
Procedure: The cell internalization of CNPs was characterized by a fluorescence microscopy. As shown in FIGS. 14A and 14B, the CNPs quickly enter into NOK and MOC2 cells. […] Through the cellular uptake study, it was confirmed that CNPs efficiently enter into the cells within 1 hour.
To evaluate the cellular uptake, NOK (Normal oral keratinocyte) and MOC2 (immunogenic murine squamous cell carcinoma) cells were used as folate receptor alpha (FRα)-negative and -positive cells, respectively (FIGS. 15A and 15B).
For visualization of the cellular uptake, the NOK and MOC2 cells in each well were treated with free-Ce6, GCCe6, FA-GCCe6, CNP and FA-CNP and then subjected to DAPI staining. […] The fluorescence images matched to the corresponding data in FIGS. 15A and 15B. The enhancement of the cellular uptake is attributed to the presence of FA facilitating receptor-mediated endocytosis.

[2] = test system: liver, lungs, kidney, heart, and spleen; test: Histology (H&E) of internal organs for toxicity; assay type: in vivo; conditions: compared to control (non-treated) group, 2 days post-intravenous injection
Procedure: After euthanizing mice with carbon dioxide gas, the internal organs (liver, kidney, spleen, heart, and lung) and tumor tissue were extracted and photographed using IVIS imaging. In addition, tumor tissues were excised from the mice at 2 days post-intravenous injection of free-Ce6, GCCe6, FA-GCCe6, CNP and FA-CNP (0.1 mL equivalent Ce6 concentration of 1.34×10^−5 mol/kg body weight) fixed with 10% Neutral Buffered Formalin solution, and embedded in paraffin, followed by sectioning. The sliced internal organs (5 μm in thickness) were stained with hematoxylin and eosin (H&E) and observed under an optical microscope. In addition, sliced tumor tissues were determined their FL and CL imaging under a confocal laser scanning microscope (Zeusis Nikon, Tokyo, Japan).

**Q.** What does the source list for chlorin e6 [free-Ce6]?
**A.** cellular uptake amount [1]: no significant difference; toxicity in H&E stained internal organs [2]: no significant cellular toxicity
